Reference: patent US20250249001A1, “METHODS OF TREATING SUBSTANCE USE DISORDER WITH 4-(3-CYANOPHENYL)-6-PYRIDINYLPYRIMIDINE MGLU5 NEGATIVE ALLOSTERIC MODULATORS” (Tempero Bio, Inc., priority 2022, published 2025)
Read-outs that look alike come from different tables or passages of the source.

Key:
[1] = system: cocaine-induced CPP in male SD rats; assay type: in vivo, Sprague Dawley rats; settings: for time difference (drug-paired vs saline-paired) vs Cocaine-Saline group / time spent in the drug-paired compartment vs Cocaine-Saline group: day 10
Method: Animals: Male Sprague Dawley rats (Envigo, IN, 275-299 g) were group housed upon arrival (2 per cage). All rats were examined and handled to assure adequate health and suitability. During the study, a 12/12 light/dark cycle was maintained (lights switched on at 7:00 am). The room temperature was maintained between […] and 23° C. with a relative humidity maintained around 50%. Chow (LabDiet #5001) and water were provided ad libitum for the duration of the study. The test was performed during the animal's light cycle phase.
Cocaine (10 mg/kg) was dissolved in saline and injected IP at a dose volume of 1 ml/kg. Cocaine was administered on training days 3, 5, 7 and 9 immediately prior to training.
3-((2-Methyl-4-thiazolyl)ethynyl)pyridine (MTEP, 3 mg/kg), was dissolved in saline and injected IP on day 10 (bias test) at a dose volume of 1 ml/kg 30 minutes prior to testing.
Compound 1 (1, 3 and 10 mg/kg) was formulated in 10% Solutol HS15 and 90% (10% aqueous 2-hydroxypropyl-β-cyclodextrin) and injected IP on day 10 (bias test) at a dose volume of 2 ml/kg. Compound 1 was administered 30 minutes prior to testing.
The chamber used in this study contained two compartments [(60 cm (L)×40 cm (W)×24 cm (H)]. The compartment used for each animal and drug pairing was assigned and counterbalanced in advance and adjusted as necessary in the rebalancing procedure after day 1 (see details below). Within the chamber, visual and physical features were used to create the two distinct compartments. For example, one compartment may have a flat plastic floor with white stripes and the other may have a textured floor and black stripes. The chambers were cleaned with 70% alcohol in between runs.
Testing sessions were recorded on days 1 and 10 to determine time spent (seconds) in each chamber.
Day 1 Pre-conditioning/Habituation: Animals are allowed to explore the entire testing chamber freely for 20 min. Animals that display a strong preference for one compartment (>75% time spent in one compartment) are excluded.
Rebalancing Procedure: Animals are rebalanced following day 1 scoring if the difference between groups for time spent in one compartment is greater than 15%.
Days 2-9 Conditioning: All animals are treated with saline on days 2, 4, 6, and 8 and with cocaine or saline on days 3, 5, 7, and 9 depending on their assigned group. Animals are confined to their assigned compartment (saline- or cocaine-paired compartment) for 20 minutes following dosing.
Day 10 Post-conditioning bias test: Animals are dosed once with either saline, MTEP or Compound 1 (1, 3 and 10 mg/kg) according to their assigned. Following dosing, animals are allowed to explore the testing chamber freely for 20 minutes with the compartment dividing door open. Their activity exploring the chamber is recorded for analysis.
Statistical Analysis: Statistical analysis was conducted using GraphPad Prism 9. Scorers blinded to the treatment groups scored the amount of time each animal spent exploring each chamber on days 1 and 10. For bias test data, a one-way analysis of variance (ANOVA) followed by Dunnett's post hoc test was used. Significance was set at p<0.05 and values exceeding two standard deviations of the mean were considered statistical outliers and were excluded from the analysis. Additionally, if an animal spent >85% or <15% of the time in one compartment even without any obvious signs of sedation or locomotor dysfunction, they were excluded from the analysis.

[2] = system: cocaine self-administration in rats
[3] = system: cocaine reinstatement in rats; assay: Yohimbine-induced reinstatement of cocaine self-administration (Stage II); assay type: in vivo, Sprague-Dawley rats; settings: 3 mg/kg co-administered with yohimbine 2 mg/kg; Ps<0.001
[4] = 1 mg/kg IP 30 minutes prior to day 10 bias test
[5] = 3 mg/kg IP, FR5, 1 hour session
[6] = MTEP 3 mg/kg IP 30 minutes prior to day 10 bias test

Row | SMILES | Percent time in compound-paired compartment, Mean Diff., Cocaine - Saline vs. Cocaine - Compound 1 (1 mg/kg) [1, 4] | Preference Scores, Mean Diff., Cocaine - Saline vs. Cocaine - Compound 1 (1 mg/kg) [1, 4] | time difference (drug-paired vs saline-paired) vs Cocaine-Saline group ([1]; 1 mg/kg IP, p<0.01) | time spent in the drug-paired compartment vs Cocaine-Saline group ([1]; 1 mg/kg IP, p<0.01) | cocaine self-administration, Mean Diff., Saline vs. treatment ([2]; 1 mg/kg IP 30 min before testing, FR5) | cocaine self-administration, Mean Diff., Saline vs. treatment [2, 5] | cocaine self-administration, Mean Diff., Saline vs. treatment ([2]; 10 mg/kg IP 30 min before testing, FR5) | cocaine self-administration vs saline treatment ([2]; all three doses, 1, 3 and 10 mg/kg IP) | yohimbine-induced cocaine reinstatement [3] | time difference (drug-paired vs saline-paired) vs Cocaine-Saline group ([1]; 3 mg/kg IP, p<0.05) | time spent in the drug-paired compartment vs Cocaine-Saline group ([1]; 3 mg/kg IP, p<0.05) | Percent time in compound-paired compartment, Mean Diff., Cocaine - Saline vs. Cocaine - MTEP [1, 6] | Preference Scores, Mean Diff., Cocaine - Saline vs. Cocaine - MTEP [1, 6] | cocaine infusion vs saline treatment ([2]; 3 mg/kg IP)
1 | N#Cc1cc(Cl)cc(-c2cc(-c3ccc(F)cn3)ncn2)c1 [Compound 1, 3-chloro-5-[6-(5-fluoropyridin-2-yl)pyrimidin-4-yl]benzonitrile] | 19.16% | 459.9 s | significantly lower time difference | significantly less time in the drug-paired compartment | 15.73 | 24.3 | 27.07 | significantly attenuate cocaine self-administration | almost entirely prevented cocaine reinstatement | – | – | – | – | –
2 | Cc1nc(C#Cc2cccnc2)cs1 [MTEP, 3-((2-Methyl-4-thiazolyl)ethynyl)pyridine] | – | – | – | – | – | 19.93 | – | – | almost entirely prevented cocaine reinstatement | significantly lower time difference | significantly less time in the drug-paired compartment | 18.73% | 449.6 s | significantly decreased cocaine infusion
